Laboratory results published in patent EP0126043A1, “Carbohydrate derivatives and compositions thereof for therapeutic or diagnostic use” (priority 1983, dated 1984).
Values after ≈ are worked out from the molar mass of the structure shown.

What was measured:
S. pneumoniae [1] = assay: Inhibition of adherence of pneumococci to human pharyngeal epithelium cells (bacteria preincubated with free receptor); format: cell-based; conditions: for activity at 100 µg/mL / activity at 1000 µg/mL / activity at 5000 µg/mL / activity at 10000 µg/mL: read-out: Adherence % of control Average; for IC50: read-out: concentration for 50% inhibition of adherence; for inhibition of adherence (result in words): pretreatment of the pneumococci with the substance; for Inhibition of adherence % of control Average: Conc. 200 µg/ml, bacteria preincubated with the glycoconjugate before adding epithelium cells, adhesion in percent of saline control
Experimental: (§1) Two strains of S. Pneumoniae, EF3114 and EF 10276 (both of the capsular type 6A isolated from the nasopharynx of patients having inflammation in the middle ear) were maintained in a lyophilized state. For adherence test the lyophiles were transferred to blood agar plates and cultivated over night, were then allowed to grow for18 hours in a synthetic medium (Ref. 1) supplemented with 2 g/l ascorbic acid and such as described in (Ref. 2). The bacteria were harvested by centrifugation and suspended in saline solution (Ref. 3).
(§2) Binding to humane nasopharyngeal epithelium cells was investigated in vitro as previously described (Ref. 3). Bacterial cells (10^9/ml) and pharyngeal epithelium cells from a healthy donor (10^4/ml) were mixed, centrifugated at 1500xg for 10 minutes and incubated at 37°C for 30 minutes. After washing twice in 2.5 ml salines for separating epithelium cells from non-adhering bacteria the number of bacteria adhering at 40 epithelium cells were counted and the average number per cell was determined.
For inhibition of adhesion the bacterium concentration giving an average adhesion value of 20-300 bacteria per cell was determined. This inoculate was then preincubated with dilutions of the solutions of potential receptor activity for 15 minutes at 37°C.
Epithelium cells were added and adhesion testing was carried out as described. The adhesion was given in percent of the saline as a control sample.

S. pneumoniae [2] = assay: Induction/increase of pneumococcal adherence by coating epithelium cells with glycoconjugate; format: cell-based; conditions: for Increase of adherence % of control Average: Conc. 200 µg/ml, epithelium cells preincubated with glycoconjugate, washed and used for adherence testing; for effect of coating of pharyngeal epithelium cells on adherence (result in words): coating with 200 µg/ml
Experimental: as §1
as §2, with “healthy male” for “healthy”
Association of receptor active glycolipids with epithelium cells or erythrocytes can increase binding to epithelium cells already containing the receptor or induce binding of cells which have not previously contained receptor. Rabbit erythrocytes (100 ul of a 5 % suspension) were mixed with a neolactotetraosyl ceramide, sialylneolactotetra- osyleeramide or globotetraosylceramide (500 ul of . suspensions of 200 ug/ml) and incubated at 37° for 3 hours with rotation (Ref. 16). After elimination of unbound glycolipid by repeated washing the erythrocyte concentration was again adjusted to 5 % and used for haemagglutination. Parallel to the tests regarding inhibition of adherence the humane nasopharyngeal epithelium cells were pretreated with decreasing concentrations of glycolipid, incubated for 2 hours at 37°C, washed and used for testing of adherence.

## CC(=O)N[C@H]1[C@H](O[C@H]2[C@@H](O)[C@@H](CO)O[C@@H](O[C@H]3[C@H](O)[C@@H](O)C(O)O[C@@H]3CO)[C@@H]2O)O[C@H](CO)[C@@H](O[C@@H]2O[C@H](CO)[C@H](O)[C@H](O)[C@H]2O)[C@@H]1O (stereo partly shown) [Substance 5, Neolactotetraose]
S. pneumoniae [1]; Streptococcus pneumoniae
  activity at 100 µg/mL: 52%
  activity at 1000 µg/mL: 28%
  activity at 5000 µg/mL: 0%
  activity at 10000 µg/mL: 1%
  IC50: ~400 µg/mL (≈ 565 µM)

## CC(=O)N[C@H]1[C@H](O[C@H]2[C@@H](O)[C@@H](CO)O[C@@H](O[C@H]3[C@H](O)[C@@H](O)C(O)O[C@@H]3CO)[C@@H]2O)O[C@H](CO)[C@@H](O)[C@@H]1O[C@@H]1O[C@H](CO)[C@H](O)[C@H](O)[C@H]1O (stereo partly shown) [Substance 6, Lactotetraose]
S. pneumoniae [1]; Streptococcus pneumoniae
  activity at 100 µg/mL: 68%
  activity at 1000 µg/mL: 25%
  activity at 5000 µg/mL: 4%
  IC50: ~400 µg/mL (≈ 565 µM)

## CO[C@H]1O[C@H](CO)[C@@H](O[C@@H]2O[C@H](CO)[C@H](O)[C@H](O)[C@H]2O)[C@H](O)[C@H]1NC(C)=O [Substance 8, Methyl 2-acetamido-2-deoxy-4-O-(β-D-galactopyranosvl)-α--D-glycopyranoside]
S. pneumoniae [1]; Streptococcus pneumoniae
  activity at 1000 µg/mL: 96%
  activity at 5000 µg/mL: 98%
  activity at 10000 µg/mL: 129%
S. pneumoniae [1]
  inhibition of adherence (result in words): inactive

## CO[C@@H]1O[C@H](CO)[C@@H](O[C@@H]2O[C@H](CO)[C@H](O)[C@H](O)[C@H]2O)[C@H](O)[C@H]1NC(C)=O [Substance 9, Methyl 2-acetamido-2-deoxy-4-O-(β-D-galactopyranosyl)-β--D-glycopyranoside]
S. pneumoniae [1]; Streptococcus pneumoniae
  activity at 1000 µg/mL: 96%
  activity at 5000 µg/mL: 45%
  activity at 10000 µg/mL: 29%
S. pneumoniae [1]; Streptococcus pneumoniae, read-out: concentration at which adherence was inhibited
  minimal effective concentration: ~5000 µg/mL

## CC(=O)N[C@H]1C(O)O[C@H](CO)[C@@H](O[C@@H]2O[C@H](CO)[C@H](O)[C@H](O)[C@H]2O)[C@@H]1O (stereo partly shown) [Substance 10, N-acetyllactose amine, reference compound]
S. pneumoniae [1]; Streptococcus pneumoniae
  activity at 1000 µg/mL: 95%
  activity at 5000 µg/mL: 144%
  activity at 10000 µg/mL: 127%
S. pneumoniae [1]
  inhibition of adherence (result in words): inactive

## CO[C@@H]1O[C@H](CO)[C@H](O[C@@H]2O[C@H](CO)[C@@H](O)[C@H](O)[C@H]2NC(C)=O)[C@H](O)[C@H]1O [Substance 11, Methyl 4-0-(2-acetamido-2-deoxy-β-D-glycopyranosyl)-β-D--galactopyranoside]
S. pneumoniae [1]; Streptococcus pneumoniae
  activity at 100 µg/mL: 65%
  activity at 1000 µg/mL: 72%
  activity at 5000 µg/mL: 73%
  activity at 10000 µg/mL: 75%
S. pneumoniae [1]
  inhibition of adherence (result in words): inactive

## CO[C@@H]1O[C@H](CO)[C@H](O)[C@H](O[C@@H]2O[C@H](CO)[C@@H](O)[C@H](O)[C@H]2NC(C)=O)[C@H]1O [Substance 12, Methyl 3-0-(2-acetamido-2-deoxy-β-D-glycopyranosyl)-β-D--galactopyranoside]
S. pneumoniae [1]; Streptococcus pneumoniae
  activity at 100 µg/mL: 66%
  activity at 1000 µg/mL: 105%
  activity at 5000 µg/mL: 15%
  activity at 10000 µg/mL: 4%

## CCO[C@@H]1O[C@H](CO)[C@@H](O[C@@H]2O[C@H](CO)[C@H](O)[C@H](O)[C@H]2O)[C@H](O)[C@H]1NC(C)=O [Substance 13, Galβ1→4GlcNAcβ1-O-Et]
S. pneumoniae [1]; Streptococcus pneumoniae
  activity at 1000 µg/mL: 67%
  activity at 5000 µg/mL: 38%
  activity at 10000 µg/mL: 31%

## CCO[C@@H]1O[C@H](CO)[C@@H](O[C@@H]2O[C@H](CO)[C@H](O)[C@H](O)[C@H]2O)[C@H](O)[C@H]1O [Substance 14, Ethyl 4-0-β-D-galactopyranosyl-β-D-glycopyranoside]
S. pneumoniae [1]; Streptococcus pneumoniae
  activity at 1000 µg/mL: 85%
  activity at 5000 µg/mL: 78%
  activity at 10000 µg/mL: 63%

## CO[C@@H]1O[C@H](CO)[C@H](O)[C@H](O[C@@H]2O[C@H](CO)[C@@H](O[C@@H]3O[C@H](CO)[C@H](O)[C@H](O)[C@H]3O)[C@H](O)[C@H]2NC(C)=O)[C@H]1O [Substance 15, Methyl 3-0-2-acetamido-2-deoxy-4-0-(β-D-galactopyranosyl)--β-D-glycopyranosyl-β-D-galactopyranoside]
S. pneumoniae [1]; Streptococcus pneumoniae
  activity at 100 µg/mL: 60%
  activity at 1000 µg/mL: 45%
  activity at 5000 µg/mL: 11%
  activity at 10000 µg/mL: 2%

## CO[C@@H]1O[C@H](CO)[C@@H](O[C@@H]2O[C@H](CO)[C@H](O)[C@H](O[C@@H]3O[C@H](CO)[C@@H](O[C@@H]4O[C@H](CO)[C@H](O)[C@H](O)[C@H]4O)[C@H](O)[C@H]3NC(C)=O)[C@H]2O)[C@H](O)[C@H]1O [Substance 16, Methyl 4-0-{3-0-[2-acetamido-2-deoxy-4-0-(D-galactopy-ranasyl)-β-D-glucopyranosyl]-β-D-galactopyranosyl}-β-D-glucopyranoside]
S. pneumoniae [1]; Streptococcus pneumoniae
  activity at 100 µg/mL: 104%
  activity at 1000 µg/mL: 11%
  activity at 5000 µg/mL: 1%
  activity at 10000 µg/mL: 4%

## Galβ1 → 3 GlcNAc-β1-O-Bz [Substance 17]
S. pneumoniae [1]; Conc. 0.1 mg/ml
  Adherence % of control Average: 88 % of control
S. pneumoniae [1]; Conc. 1 mg/ml
  Adherence % of control Average: 86 % of control
S. pneumoniae [1]; Conc. 5 mg/ml
  Adherence % of control Average: 51 % of control
S. pneumoniae [1]; Conc. 10 mg/ml
  Adherence % of control Average: 8 % of control

## N-acetylneuraminosyl neolactotetraosyl ceramide [Substance 3, reference compound]
S. pneumoniae [2]
  Increase of adherence % of control Average: 94 % of control
  effect of coating of pharyngeal epithelium cells on adherence (result in words): no effect
S. pneumoniae [1]
  Inhibition of adherence % of control Average: 100 % of control
  inhibition of adherence (result in words): no effect

## globotetraosylceramide
S. pneumoniae [2]
  effect of coating of pharyngeal epithelium cells on adherence (result in words): no effect

## globotetraosylceramide [Substance 4, reference compound]
S. pneumoniae [2]
  Increase of adherence % of control Average: 100 % of control

## neolactotetraosyl ceramide [Substance 2]
S. pneumoniae [2]
  Increase of adherence % of control Average: 190 % of control
  effect of coating of pharyngeal epithelium cells on adherence (result in words): increased adherence
S. pneumoniae [1]
  Inhibition of adherence % of control Average: 59 % of control
S. pneumoniae [1]; pretreatment of the pneumococci, at 200 µg/ml, 15 min
  adherence, % of the saline as a control: 59%
